This note sets out measurements from patent US20250304559A1, “Ether-Linked Antiviral Compounds” (Pfizer Inc., priority 2021, published 2025).

In test [1] the test system is SARS-CoV-2 (USA_WA1/2020). The test is described as follows: Antiviral Activity from SARS-CoV-2 Infection (cytopathic effect, Cell Titer-Glo). Conditions: Severe acute respiratory syndrome coronavirus 2, Vero C1008, 72 h, VeroE6 cells enriched for hACE2, MOI 0.002, 3-day incubation; tested alone or with P-gp inhibitor CP-100356 2 μM (table does not say which); read-out: Geometric Mean EC50. In kind it is cell-based. (Damage to the host cells serves as the signal in cytopathic effect assays.)

The target in another test is T1, SARS-CoV-2 3CL protease (Severe acute respiratory syndrome coronavirus 2, UniProt P0DTD1).
T1 construct: measures the activity of full-length SARS-CoV-2 3CL protease
The test is described as follows: SARS-CoV-2 Coronavirus 3C Protease FRET Assay. In kind it is biochemical. Conditions: Morrison equation fit, 15 nM enzyme, 25 μM peptide substrate; for Ki: Examples 14-78 and 114 (second head of Table 2), read-out: Geometric Mean Ki (nM) IC50; for pKi: Examples 1-13, 60 minutes at 23° C., read-out: Geometric Mean Ki.

One may read the pEC50 as the negative decadic logarithm of the EC50, by convention in mol/L. As usually defined, the Ki is the dissociation constant of the complex between target and ligand, obtained from inhibition or displacement. For orientation: pKi means −log10 of the Ki, conventionally taken in molar units.

pEC50, pKi: −log10 of the molar value. Where two headings read alike, the source gives them in different places. Some results are limits rather than exact numbers.

On to `COc1ccc(COCC(=O)[C@H](C[C@@H]2CCNC2=O)NC(=O)[C@@H]2[C@@H]3[C@H](CN2C(=O)[C@@H](NC(=O)C(F)(F)F)C(C)(C)C)C3(C)C)cc1` [Example 14, (1R,2S,5S)-N-{(2S)-4-[(4-methoxyphenyl)methoxy]-3-oxo-1-[(3S)-2-oxopyrrolidin-3-yl]butan-2-yl}-6,6-dimethyl-3-[3-methyl-N-(trifluoroacetyl)-L-valyl]-3-azabicyclo[3.1.0]hexane-2-carboxamide], for which, in test [1], the pEC50 was 7.31. The Ki at SARS-CoV-2 3CL protease came out at 3.48 nM.

For `COC(=O)N[C@H](C(=O)N1C[C@H]2[C@@H]([C@H]1C(=O)N[C@@H](C[C@@H]1CCNC1=O)C(=O)COc1cccc(Cl)c1)C2(C)C)C(C)C` [Example 25, methyl {(2S)-1-[(1R,2S,5S)-2-({(2S)-4-(3-chlorophenoxy)-3-oxo-1-[(3S)-2-oxopyrrolidin-3-yl]butan-2-yl}carbamoyl)-6,6-dimethyl-3-azabicyclo[3.1.0]hexan-3-yl]-3-methyl-1-oxobutan-2-yl}carbamate], in test [1], the pEC50 is 7.42. On SARS-CoV-2 3CL protease, the Ki was 1.76 nM.

Regarding `CC(C)[C@H](NC(=O)C(F)(F)F)C(=O)N1C[C@H]2[C@@H]([C@H]1C(=O)N[C@@H](C[C@@H]1CCNC1=O)C(=O)COc1ncnn1-c1ccccc1)C2(C)C` [Example 64, (1R,2S,5S)-6,6-dimethyl-N-{(2S)-3-oxo-1-[(3S)-2-oxopyrrolidin-3-yl]-4-[(1-phenyl-1H-1,2,4-triazol-5-yl)oxy]butan-2-yl}-3-[N-(trifluoroacetyl)-L-valyl]-3-azabicyclo[3.1.0]hexane-2-carboxamide], the negative-log EC50 (pEC50) in test [1] was 5.27. Moreover, the Ki on SARS-CoV-2 3CL protease came to 62.2 nM.

Turning to `CCn1nc(C)cc1OCC(=O)[C@H](C[C@@H]1CCNC1=O)NC(=O)[C@@H]1[C@@H]2[C@H](CN1C(=O)[C@@H](NC(=O)OC)C(C)(C)C)C2(C)C` [Example 33, methyl {(2S)-1-[(1R,2S,5S)-2-({(2S)-4-[(1-ethyl-3-methyl-1H-pyrazol-5-yl)oxy]-3-oxo-1-[(3S)-2-oxopyrrolidin-3-yl]butan-2-yl}carbamoyl)-6,6-dimethyl-3-azabicyclo[3.1.0]hexan-3-yl]-3,3-dimethyl-1-oxobutan-2-yl}carbamate], the pEC50 in test [1] was 5.90. Moreover, the Ki at SARS-CoV-2 3CL protease turned out to be 3.04 nM.

In the case of `COC(=O)N[C@H](C(=O)N1C[C@H]2[C@@H]([C@H]1C(=O)N[C@@H](C[C@@H]1CCNC1=O)C(=O)COc1cccc(Cl)c1)C2(C)C)C(C)(C)C` [Example 16, methyl {(2S)-1-[(1R,2S,5S)-2-({(2S)-4-(3-chlorophenoxy)-3-oxo-1-[(3S)-2-oxopyrrolidin-3-yl]butan-2-yl}carbamoyl)-6,6-dimethyl-3-azabicyclo[3.1.0]hexan-3-yl]-3,3-dimethyl-1-oxobutan-2-yl}carbamate], the pEC50 in test [1] is 7.94. On SARS-CoV-2 3CL protease, the Ki was found to be 0.21 nM.

On to `CC(C)[C@H](NS(=O)(=O)C(F)(F)F)C(=O)N1C[C@H]2[C@@H]([C@H]1C(=O)N[C@@H](C[C@@H]1CCNC1=O)C(=O)COc1cccc(C(F)(F)F)c1)C2(C)C` [Example 5, (1R,2S,5S)-6,6-dimethyl-N-{(2S)-3-oxo-1-[(3S)-2-oxopyrrolidin-3-yl]-4-[3-(trifluoromethyl)phenoxy]butan-2-yl}-3-{N-[(trifluoromethyl)sulfonyl]-L-valyl}-3-azabicyclo[3.1.0]hexane-2-carboxamide], for which the pEC50 in test [1] is 6.69. Moreover, the pKi at SARS-CoV-2 3CL protease was 7.97.

In the case of `CC(C)[C@H](NC(=O)C(F)(F)F)C(=O)N1C[C@H]2[C@@H]([C@H]1C(=O)N[C@@H](C[C@@H]1CCNC1=O)C(=O)COc1ccc(F)cc1F)C2(C)C` [Example 1, (1R,2S,5S)-N-{(2S)-4-(2,4-difluorophenoxy)-3-oxo-1-[(3S)-2-oxopyrrolidin-3-yl]butan-2-yl}-6,6-dimethyl-3-[N-(trifluoroacetyl)-L-valyl]-3-azabicyclo[3.1.0]hexane-2-carboxamide], the pEC50 in test [1] is 7.57. For the same compound, the pKi on SARS-CoV-2 3CL protease is 8.69.

With `CC(C)[C@H](NC(=O)C(F)(F)F)C(=O)N1C[C@H]2[C@@H]([C@H]1C(=O)N[C@@H](C[C@@H]1CCNC1=O)C(=O)COc1cc(F)cc(F)c1)C2(C)C` [Example 58, (1R,2S,5S)-N-{(2S)-4-(3,5-difluorophenoxy)-3-oxo-1-[(3S)-2-oxopyrrolidin-3-yl]butan-2-yl}-6,6-dimethyl-3-[N-(trifluoroacetyl)-L-valyl]-3-azabicyclo[3.1.0]hexane-2-carboxamide], the pEC50 in test [1] was 7.05. The Ki at SARS-CoV-2 3CL protease was found to be 17.1 nM.

With `CC(C)[C@H](NC(=O)C(F)(F)F)C(=O)N1C[C@H]2[C@@H]([C@H]1C(=O)NC(C[C@@H]1CCNC1=O)C(=O)COc1ccc(F)cc1F)C2(C)C` (mixture of isomers) [Example 35, (1R,2S,5S)-N-{(2RS)-4-(2,4-difluorophenoxy)-3-oxo-1-[(3S)-2-oxopyrrolidin-3-yl]butan-2-yl}-6,6-dimethyl-3-[N-(trifluoroacetyl)-L-valyl]-3-azabicyclo[3.1.0]hexane-2-carboxamide], in test [1], the negative logarithm of the EC50 (pEC50) is 7.03. Also, on SARS-CoV-2 3CL protease, the Ki came out at 2.76 nM.

`COC(=O)N[C@H](C(=O)N1C[C@H]2[C@@H]([C@H]1C(=O)N[C@@H](C[C@@H]1CCNC1=O)C(=O)COc1ccc(F)cc1)C2(C)C)C(C)(C)C` [Example 21, methyl {(2S)-1-[(1R,2S,5S)-2-({(2S)-4-(4-fluorophenoxy)-3-oxo-1-[(3S)-2-oxopyrrolidin-3-yl]butan-2-yl}carbamoyl)-6,6-dimethyl-3-azabicyclo[3.1.0]hexan-3-yl]-3,3-dimethyl-1-oxobutan-2-yl}carbamate]: the pEC50 in test [1] is 7.73. Further, at SARS-CoV-2 3CL protease, the Ki was 2.2 nM.

`CC(C)[C@H](NC(=O)C(F)(F)F)C(=O)N1C[C@H]2[C@@H]([C@H]1C(=O)N[C@H](C[C@@H]1CCNC1=O)C(=O)COc1ccc(F)cc1F)C2(C)C` [Example 2, (1R,2S,5S)-N-{(2R)-4-(2,4-difluorophenoxy)-3-oxo-1-[(3S)-2-oxopyrrolidin-3-yl]butan-2-yl}-6,6-dimethyl-3-[N-(trifluoroacetyl)-L-valyl]-3-azabicyclo[3.1.0]hexane-2-carboxamide]: in test [1], the negative-log EC50 (pEC50) was 7.13. Also, the negative-log Ki (pKi) at SARS-CoV-2 3CL protease is 6.76.

For `CCn1nc(C)cc1OCC(=O)[C@H](C[C@@H]1CCNC1=O)NC(=O)[C@@H]1[C@@H]2[C@H](CN1C(=O)[C@@H](NC(=O)C(F)(F)F)C(C)(C)C)C2(C)C` [Example 27, (1R,2S,5S)-N-{(2S)-4-[(1-ethyl-3-methyl-1H-pyrazol-5-yl)oxy]-3-oxo-1-[(3S)-2-oxopyrrolidin-3-yl]butan-2-yl}-6,6-dimethyl-3-[3-methyl-N-(trifluoroacetyl)-L-valyl]-3-azabicyclo[3.1.0]hexane-2-carboxamide], in test [1], the pEC50 is 6.37. The Ki at SARS-CoV-2 3CL protease was 8.84 nM.

In the case of `Cn1nc(C(F)(F)F)cc1OCC(=O)[C@H](C[C@@H]1CCNC1=O)NC(=O)[C@@H]1[C@@H]2[C@H](CN1C(=O)[C@@H](NC(=O)C(F)(F)F)C(C)(C)C)C2(C)C` [Example 8, (1R,2S,5S)-6,6-dimethyl-3-[3-methyl-N-(trifluoroacetyl)-L-valyl]-N-{(2S)-4-{[1-methyl-3-(trifluoromethyl)-1H-pyrazol-5-yl]oxy}-3-oxo-1-[(3S)-2-oxopyrrolidin-3-yl]butan-2-yl}-3-azabicyclo[3.1.0]hexane-2-carboxamide], the pEC50 in test [1] was 7.31. Also, the pKi at SARS-CoV-2 3CL protease was 8.54.

As to `CC(C)[C@H](NC(=O)C(F)(F)F)C(=O)N1C[C@H]2[C@@H]([C@H]1C(=O)N[C@@H](C[C@@H]1CC(=O)NC1=O)C(=O)COc1ccc(F)cc1F)C2(C)C` [Example 42, (1R,2S,5S)-N-{(2S)-4-(2,4-difluorophenoxy)-1-[(3R)-2,5-dioxopyrrolidin-3-yl]-3-oxobutan-2-yl}-6,6-dimethyl-3-[N-(trifluoroacetyl)-L-valyl]-3-azabicyclo[3.1.0]hexane-2-carboxamide], in test [1], the pEC50 is 6.52. Besides, the Ki at SARS-CoV-2 3CL protease is 7.05 nM.

For the compound `COC(=O)N[C@H](C(=O)N1C[C@H]2[C@@H]([C@H]1C(=O)N[C@@H](C[C@@H]1CCNC1=O)C(=O)COc1ccccc1F)C2(C)C)C(C)(C)C` [Example 22, methyl {(2S)-1-[(1R,2S,5S)-2-({(2S)-4-(2-fluorophenoxy)-3-oxo-1-[(3S)-2-oxopyrrolidin-3-yl]butan-2-yl}carbamoyl)-6,6-dimethyl-3-azabicyclo[3.1.0]hexan-3-yl]-3,3-dimethyl-1-oxobutan-2-yl}carbamate], the pEC50 in test [1] is 7.28. On SARS-CoV-2 3CL protease, the Ki turned out to be 4.78 nM.

As for `COCC(=O)[C@H](C[C@@H]1CCNC1=O)NC(=O)C1C[C@H](C(C)(C)C)CCN1C(=O)[C@@H](NS(=O)(=O)C(F)(F)F)C(C)C` (single isomer, unassigned) [Example 77, (2R*,4S*)-4-tert-butyl-N-{(2S)-4-methoxy-3-oxo-1-[(3S)-2-oxopyrrolidin-3-yl]butan-2-yl}-1-[N-(trifluoromethanesulfonyl)-L-valyl]piperidine-2-carboxamide, DIAST-2], the pEC50 in test [1] was less than 4.00. Moreover, the Ki at SARS-CoV-2 3CL protease is greater than 10800 nM.

Consider `CC(C)[C@H](NC(=O)C(F)(F)F)C(=O)N1C[C@H]2[C@@H]([C@H]1C(=O)N[C@@H](C[C@@H]1CCNC1=O)C(=O)COc1cccc(Cl)c1)C2(C)C` [Example 50, (1R,2S,5S)-N-{(2S)-4-(3-chlorophenoxy)-3-oxo-1-[(3S)-2-oxopyrrolidin-3-yl]butan-2-yl}-6,6-dimethyl-3-[N-(trifluoroacetyl)-L-valyl]-3-azabicyclo[3.1.0]hexane-2-carboxamide], for which the pEC50 in test [1] is 7.12. The Ki on SARS-CoV-2 3CL protease is 10.7 nM.
